Assays:
[1] = 100 kPa, Liquid
[2] = refractive index (Na D-line) (dimensionless); settings: 298.15 K; 101.33 kPa; Liquid; Standard Abbe refractometry
[3] = xn = mol fraction of the nth substance listed; settings: 100 kPa, Liquid
[4] = refractive index (Na D-line) (dimensionless); xn = mol fraction of the nth substance listed; settings: 298.15 K, 100 kPa, Liquid, Standard Abbe refractometry

COS(=O)(=O)[O-].Cn1cc[n+](C)c1 [1,3-dimethylimidazolium methylsulfate]
[1]
Settings | mass density [kg/m3] | viscosity [mPa·s]
298.15 K | 1329.12 | 77.7
313.15 K | 1318.56 | 41.68
328.15 K | 1308.13 | 25.21

Settings | refractive index
[2] | 1.48296

COS(=O)(=O)[O-].Cn1cc[n+](C)c1 [1,3-dimethylimidazolium methylsulfate] + CCO
[3]
Settings | mass density, 298.15 K [kg/m3] | mass density, 313.15 K [kg/m3] | mass density, 328.15 K [kg/m3] | viscosity, 298.15 K [mPa·s] | viscosity, 313.15 K [mPa·s] | viscosity, 328.15 K [mPa·s]
x2 = 0 | 1329.12 | 1318.56 | 1308.13 | 77.7 | 41.68 | 25.21
x2 = 0.0669 | 1316.47 | 1305.89 | 1295.53 | 62.1 | 34.42 | 21.43
x2 = 0.1228 | 1305.19 | 1294.59 | 1284.2 | 51.6 | 29.38 | 18.72
x2 = 0.2212 | 1282.46 | 1271.77 | 1261.38 | 36.97 | 22.8 | 15.07
x2 = 0.2944 | 1263.18 | 1252.46 | 1241.97 | 29.56 | 17.97 | 12.28
x2 = 0.3984 | 1231.22 | 1220.4 | 1209.57 | 20.26 | 12.87 | 9.141
x2 = 0.5 | 1192.8 | 1181.88 | 1171.12 | 12.83 | 8.823 | 6.461
x2 = 0.5926 | 1150.85 | 1139.74 | 1128.74 | 8.784 | 6.258 | 4.727
x2 = 0.6921 | 1094.3 | 1082.98 | 1071.75 | 5.706 | 4.309 | 3.246
x2 = 0.797 | 1018.1 | 1006.41 | 994.72 | 3.513 | 2.649 | 2.077
x2 = 0.8957 | 923.16 | 910.98 | 898.7 | 2.096 | 1.603 | 1.265
x2 = 0.945 | 864.26 | 851.76 | 839.06 | 1.602 | 1.225 | 0.961

[4]
Settings | refractive index
x2 = 0 | 1.48296
x2 = 0.0669 | 1.48028
x2 = 0.1228 | 1.47773
x2 = 0.2212 | 1.47336
x2 = 0.2944 | 1.46936
x2 = 0.3984 | 1.46252
x2 = 0.5 | 1.45421
x2 = 0.5926 | 1.44554
x2 = 0.6921 | 1.43248
x2 = 0.797 | 1.41494
x2 = 0.8957 | 1.39329
x2 = 0.945 | 1.37874

COS(=O)(=O)[O-].Cn1cc[n+](C)c1 [1,3-dimethylimidazolium methylsulfate] + O
[3]
Settings | mass density, 298.15 K [kg/m3] | mass density, 313.15 K [kg/m3] | mass density, 328.15 K [kg/m3] | viscosity, 298.15 K [mPa·s] | viscosity, 313.15 K [mPa·s] | viscosity, 328.15 K [mPa·s]
x2 = 0 | 1329.12 | 1318.56 | 1308.13 | 77.7 | 41.68 | 25.21
x2 = 0.0497 | 1326.99 | 1316.44 | 1306.09 | 68.1 | 37.51 | 23.95
x2 = 0.1475 | 1322.81 | 1312.31 | 1301.96 | 53.6 | 30.44 | 19.85
x2 = 0.2128 | 1319.54 | 1309.03 | 1298.64 | 44.93 | 25.86 | 17.11
x2 = 0.3086 | 1313.75 | 1303.27 | 1292.81 | 35.23 | 20.76 | 13.79
x2 = 0.3869 | 1307.71 | 1297.25 | 1286.89 | 27.57 | 16.93 | 10.5
x2 = 0.4947 | 1296.97 | 1286.56 | 1276.22 | 19.55 | 12.41 | 8.521
x2 = 0.5959 | 1282.77 | 1272.39 | 1262.04 | 13.88 | 9.041 | 6.336
x2 = 0.6947 | 1262.17 | 1251.91 | 1240.95 | 9.599 | 6.368 | 4.518
x2 = 0.7966 | 1226.82 | 1216.82 | 1206.64 | 5.928 | 4.027 | 2.917
x2 = 0.8962 | 1162.06 | 1152.98 | 1143.43 | 2.925 | 2.069 | 1.548
x2 = 0.9485 | 1100.41 | 1092.64 | 1084.03 | 1.745 | 1.261 | 0.99

[4]
Settings | refractive index
x2 = 0 | 1.48296
x2 = 0.0497 | 1.48187
x2 = 0.1475 | 1.47986
x2 = 0.2128 | 1.47824
x2 = 0.3086 | 1.47536
x2 = 0.3869 | 1.47252
x2 = 0.4947 | 1.46739
x2 = 0.5959 | 1.46071
x2 = 0.6947 | 1.45105
x2 = 0.7966 | 1.43485
x2 = 0.8962 | 1.40572
x2 = 0.9485 | 1.37848

CCO [ethanol]
[1]
Settings | mass density [kg/m3] | viscosity [mPa·s]
298.15 K | 785.46 | 1.082
313.15 K | 772 | 0.827
328.15 K | 758.55 | 0.641

Settings | refractive index
[2] | 1.36023

CCO [ethanol] + COS(=O)(=O)[O-].Cn1cc[n+](C)c1
[3], x1 = 1
Settings | mass density [kg/m3] | viscosity [mPa·s]
298.15 K | 785.46 | 1.082
313.15 K | 772 | 0.827
328.15 K | 758.55 | 0.641

Settings | refractive index
[4], x1 = 1 | 1.36023

— the NIST ThermoML archive (doi:10.1016/j.jct.2008.04.006)
